Reference: patent US20230116399A1, “Tumor Homing Statin Derivatives” (Da Zen Theranostics, Inc., priority 2019, published 2023)

Key:
[1] = tested on: L858R/T790M vs wild-type EGFR; details: inhibiting phosphorylation of EGFR; cited from earlier work
22RV1 (PC) = experiment: MTT cell viability, 22RV1; type: cell-based, human
Protocol: (§1) Cell culture: In the following examples, unless otherwise specified, all cell lines are purchased from American Type Culture Collection and cultured in American Type Culture Collection (ATCC)-recommended media, with fetal bovine serum (FBS) to a final concentration of 10% and 1×penicillin/streptomycin at 37° C. with 5% CO2 in a cell culture incubator, unless otherwise specified. Unless otherwise specified, culture is 2D. Where culture is 3D, low attachment plates are used, with the same media. C4-2B (parental cell line and drug-resistant cells derived therefrom) are cultured in RPMI-1640 with 10% FBS. MDVR cells (an Enzalutamide-resistant variety of C4-2B prostate cancer cells formed as described in Example 4 below) are cultured as indicated for the parental C4-2B cells. 22RV1 Prostate Cancer (PC) cells (ATCC® CRL-2505™, a human prostate carcinoma cell line of epithelial morphology) are cultured in RPMI-1640 with 10% FBS. A549 cells (ATCC® CCL-185™, a human lung carcinoma cell line of epithelial morphology) are cultured in F-12K medium with 10% FBS. A549/DDP cells (Cells were described in DOI: 10.3892/mmr.2014.2163 and in doi: 10.7150/jca.19426; cisplatin resistant cells may be established from exposing parental A549 cells to cisplatin for an extended time). MDR A549/cisplatin lung adenocarcinoma cell line, drug resistant) are cultured in F-12K medium with 10% FBS. H1975 cells (ATCC® CRL-5908™, a human adenocarcinoma non-small cell lung cancer cell line of epithelial morphology) are cultured in RPMI-1640 medium with 10% FBS; H1975 cells are a cell model for human lung cancer that is resistant to Gefitinib (an EGFR inhibitor drug used for treatment of certain breast, lung and other cancers). H1650 cells (ATCC® CRL-5883™, a adenocarcinoma/bronchoalveolar carcinoma lung cancer cell line of epithelial morphology) are cultured in RPMI-1640 medium with 10% FBS. […]
(§2) […] For each cell line, the IC50 is determined for each drug, i.e. the ELSD, the ALSD, and for the corresponding unconjugated statin (Simvastatin), in concentrations from 0.1-100 μM. […]

human cancer cell lines = experiment: MTT cell viability, summary over the cancer cell lines; type: cell-based; details: summary of the table of IC50, read-out: range of IC50 over the cancer cell lines
Protocol: Example 7: The experiment is performed by cell assay essentially as described above in example 4. […]
The cell lines are cultured according to the protocols as described above, then each of the cell lines are treated for 48 h either with an ELSD (here of formula FId, “DZ2b” or compound 14) or with an ALSD (here of formula FIId, “DZ2a” or compound 7). For each cell line, the IC50 is determined for each drug, i.e. the ELSD, the ALSD, and for the corresponding unconjugated statin (Simvastatin), in concentrations from 0.1-100 μM.
In the controls (not shown in the figures), the cells are exposed to DMSO (vehicle) for a final concentration that equals the highest concentration of the drug tested, to a maximum concentration less than 0.1% v/v. […] The absorbance density of the supernatant is read on a 96-well microplate reader at wavelength 595 nm.

EZ-resistant C4-2B (PC) = experiment: MTT cell viability, EZ-resistant C4-2B (MDVR); type: cell-based; details: Homo sapiens, 48 h / 24 hours, relative IC50
Protocol: as §1, with “FBS.” for “FBS. H1975 cells (ATCC® CRL-5908™, a human adenocarcinoma non-small cell lung cancer cell line of epithelial morphology) are cultured in RPMI-1640 medium with 10% FBS; H1975 cells are a cell model for human lung cancer that is resistant to Gefitinib (an EGFR inhibitor drug used for treatment of certain breast, lung and other cancers). H1650 cells (ATCC® CRL-5883™, a adenocarcinoma/bronchoalveolar carcinoma lung cancer cell line of epithelial morphology) are cultured in RPMI-1640 medium with 10% FBS.”

[2] = Stability of conjugates in mouse blood serum at 37° C. for 3 hours (LC-MS/MS); type: in vitro ADME; details: for amount of conjugate at 3 h (value at time 0 is 100) / degradation/release of the statin from the conjugate: mouse blood serum, 37° C., 3 h; for stability when exposed to serum: serum at body temperature for at least 3 hours
Protocol: Comparative example 1A-V: Synthesis of DZ1-SIM rapid release ester (RRE) and comparison of stability to an ELSD (here: DZ1-SIM). A rapid release ester (RRE) is synthesized as described below, linking DZ1 to Simvastatin (DZ1-SIM RRE or “DZ2c”, compound 8) and is tested in comparison to the ELSD (here: DZ1-SIM or “DZ2b”, compound 14, synthesized as described above). Both compounds are incubated in mouse blood serum at 37° C. for 3 hours, after which samples are taken and tested for degradation of the conjugates by testing for the unconjugated statin as described in example 6 herein-below (LC-MS/MS-025 with positive ion, ESI, MRM detection and HPLC). […] The value at time 0 for each of the samples is 100.

PC9 (LC) = experiment: MTT cell viability, PC9; type: cell-based, human; details: Homo sapiens, 48 h / 24 hours, relative IC50
Protocol: as §1

H1650 (LC) = experiment: MTT cell viability, H1650; type: cell-based, human; details: Homo sapiens, NCI-H1650, 48 h / 24 hours, relative IC50
Protocol: as §1

H1975 (LC) = experiment: MTT cell viability, H1975; type: cell-based, human; details: Homo sapiens, NCI-H1975, 48 h / 24 hours, relative IC50
Protocol: as §1

A549 (LC) = experiment: MTT cell viability, A549; type: cell-based, human; details: Homo sapiens, 48 h / 24 hours, relative IC50
Protocol: as §1

H446 (LC) = experiment: MTT cell viability, H446; type: cell-based, human; details: Homo sapiens, NCI-H446, 48 h / 24 hours, relative IC50
Protocol: as §1

A549DDP (LC) = experiment: MTT cell viability, A549DDP; type: cell-based, human; details: Homo sapiens, A549/DDP, 48 h / 24 hours, relative IC50
Protocol: as §1, §2

PC3 (PC) = experiment: MTT cell viability, PC3; type: cell-based; details: Homo sapiens, 48 h / 24 hours, relative IC50
Protocol: as §1, with “FBS.” for “FBS. H1975 cells (ATCC® CRL-5908™, a human adenocarcinoma non-small cell lung cancer cell line of epithelial morphology) are cultured in RPMI-1640 medium with 10% FBS; H1975 cells are a cell model for human lung cancer that is resistant to Gefitinib (an EGFR inhibitor drug used for treatment of certain breast, lung and other cancers). H1650 cells (ATCC® CRL-5883™, a adenocarcinoma/bronchoalveolar carcinoma lung cancer cell line of epithelial morphology) are cultured in RPMI-1640 medium with 10% FBS.”

[3] = tested on: 22Rv1 human prostate carcinoma tumors; experiment: Tumor volume of 22Rv1 tumors grown subcutaneously in mice; type: in vivo; details: 8 mg/kg, intravenously injected
Protocol: Example 1D: 22Rv1 human prostate carcinoma cells are cultured as described above, separated from the medium, resuspended in 50% phosphate buffered saline (PBS) and 50% BD Matrigel™ (BD Biosciences, CA), and then the re-suspended cells are injected and grown subcutaneously in mice. […] The decrease of the THSD in the tumors at 2 and 4 weeks, respectively, as determined by NIR signal, is less than about 30%.
Example 1E: 22Rv1 human prostate carcinoma cells are cultured, injected and grown subcutaneously in mice as described above in example 1D. Tumor volume is monitored by measuring the size by caliper and calculating volume as described in example 9 below. The mice are intravenously injected with the following: ALSD of formula FIId, “DZ2a”, compound 7, the corresponding unconjugated dye (here: DZ1), unconjugated Simvastatin, a statin drug (SIM), and docetaxel (DOC), a cancer drug, and a mixture of the ALSD with DOC. Each active was administered in an amount of 5 mg/kg for the ALSD, DZ1, and SIM, except, in case of DOC, 8 mg/kg. A slower rate of increased tumor volume indicates tumor suppressive activity.

[4] = tested on: RhoA/B in H-1975 human lung cancer tumors; experiment: RhoA/B membrane staining of tumor tissue, H-1975 mouse model; type: in vivo, mice; details: 20 mg/kg
Protocol: RhoA/RhoB membrane staining of tumor tissue of a H-1975 human lung cancer cell mouse model is performed as described below, and the tumor-bearing mice are treated with a THSD (here an ALSD of formula FIId, “DZ2a”, compound 7) in comparison to the corresponding unconjugated dye (“DZ1”) and to Gefinitib (an EGFR inhibitor drug used for treatment of certain breast, lung and other cancers).
H-1975 cells, a cell model for human lung cancer that is resistant to Gefitinib (an EGFR inhibitor drug used for treatment of certain breast, lung and other cancers) are cultured as described above and injected subcutaneously into mice to develop tumors. The mice and the tumors that are formed are systemically exposed to an ALSD (here of formula FIId, “DZ2a”, compound 7) by intravenous injection. The tumor-bearing mice are treated with either Gefitinib (20 mg/kg), or with an ALSD (here of formula FIId, “DZ2a”, compound 7, 5 mg/kg), an unconjugated dye of formula III (“DZ1”, 5 mg/kg) or a combination of the ALSD with Gefitinib.
For immunostaining of tumor tissue, the animals are sacrificed by prescribed and approved euthanasia techniques. Tumor tissue (maximum thickness 3 mm) is sliced, formalin fixated, embedded into paraffin blocks which are sectioned and processed into paraffin section slides. […]

For `C=CC(=O)Nc1cc(Nc2nccc(-c3cn(C)c4ccccc34)n2)c(OC)cc1N(C)CCN(C)C` [AZD9291, Osimertinib], the “greater potency against L858R/T790M than wild-type EGFR” value [1] is listed as 100-200 times.

`CCC(C)(C)C(=O)O[C@H]1C[C@@H](C)C=C2C=C[C@H](C)[C@H](CC[C@@H](O)C[C@@H](O)CC(=O)OCCNC(=O)CCCCCN3/C(=C/C=C4\CCCC(/C=C/C5=[N+](CCCCS(=O)(=O)O)c6ccccc6C5(C)C)=C4Cl)C(C)(C)c4ccccc43)[C@H]21` [DZ2b] showed an IC50 (22RV1 (PC); 22RV1, treated for 48 h /, relative IC50, listed as ELSD) of 7.8 µM, an IC50 (22RV1 (PC); Homo sapiens, 22Rv1, 22RV1, treated for 48 h /, relative IC50) of 10.8 µM and an IC50 (human cancer cell lines) of 2 to 12 µM. For the same compound, the IC50 (EZ-resistant C4-2B (PC)) was 3.8 µM, the “amount of conjugate at 3 h (value at time 0 is 100)” value [2] was 100 and the “degradation/release of the statin from the conjugate” value [2] was “no degradation/release”. The “stability when exposed to serum” value [2] was “stable and not subject to degradation”, the IC50 (PC9 (LC)) was 5.6 µM and the IC50 (H1650 (LC)) was 11.8 µM. It also gave an IC50 (H1975 (LC)) of 6.4 µM, an IC50 (A549 (LC)) of 5.4 µM and an IC50 (H446 (LC)) of 3.4 µM. For the same compound, the IC50 (A549DDP (LC)) was 2.1 µM and the IC50 (PC3 (PC)) was 6 µM.

With `CC(=O)O[C@@]12CO[C@@H]1C[C@H](O)[C@@]1(C)C(=O)[C@H](O)C3=C(C)[C@@H](OC(=O)[C@H](O)[C@@H](NC(=O)OC(C)(C)C)c4ccccc4)C[C@@](O)([C@@H](OC(=O)c4ccccc4)[C@H]21)C3(C)C` [Docetaxel] the “tumor suppressive activity (tumor volume increase)” value [3] was “no or very mild tumor suppressive activity” and the “tumor suppressive activity (tumor volume increase)” value ([3]; listed as DOC) was “no significant tumor suppressive activity”.

With `COc1cc2ncnc(Nc3ccc(F)c(Cl)c3)c2cc1OCCCN1CCOCC1` [Gefitinib] the “RhoA/B staining of tumor cell membranes” value [4] was “staining persists in the membranes”.

With `CCC(C)(C)C(=O)O[C@H]1C[C@@H](C)C=C2C=C[C@H](C)[C@H](CC[C@@H]3C[C@@H](OC(=O)CCCCCN4/C(=C/C=C5\CCCC(/C=C/C6=[N+](CCCCS(=O)(=O)[O-])c7ccccc7C6(C)C)=C5Cl)C(C)(C)c5ccccc54)CC(=O)O3)[C@H]21` [DZ2c] the “amount of conjugate at 3 h (value at time 0 is 100)” value [2] was 10, the “degradation/release of the statin from the conjugate” value [2] was 90% and the “stability when exposed to serum” value [2] was “less stable and more easily degrades”.
